The record followed here is US9440988B2, “Regulators of the hedgehog pathway, compositions and uses related thereto” (John Hopkins University School of Medicine, priority 1008, dated 2016).

This experiment has as its system Sonic hedgehog signaling. Nature of the experiment: Clonal NIH-3T3 line with stably integrated Shh-responsive luciferase reporter (Shh-LIGHT/Shh-LIGHT2), inhibition of Sonic hedgehog induction. The experiment is classed as cell-based, mouse. The conditions noted are these: for improvement of inhibitory activity by oxidation of the hydroxyl group to a ketone: versus the corresponding 3-hydroxyl compound (18, 20, 22, 33, 40, 50); for effect of N-alkyl modification on ability to block Shh signaling / effect of addition on inhibitory activity: SAR statement, relative to cyclopamine. An excerpt:
FIG. 2 relates to a sensitive assay for Shh signaling in NIH-3T3 cells. (A) Purification of cholesterol- and palmitate-modified mouse Sonic hedgehog signaling domain ShhNp. Detergent-insoluble proteolipid complexes were isolated from 293 cells expressing full-length Shh (M. K. Cooper, J. A. Porter, K. E. Young, P. A. Beachy, Science 280, 1603 (1998)), and ShhNp was purified to apparent homogeneity by immunoaffinity chromatography. […] We therefore used the detergent insolubility of cholesterol-modified ShhN and affinity chromatography to purify the processed ShhN protein (ShhNp) from a human 293 cell line engineered to express the full length mouse Shh construct. Detergent-insoluble complexes (DIGs) were isolated as described by Brown and Rose (1992), with the following modifications. Cells from a 150 mm dish were lysed and collected in 2 mL of lysis solution (10 mM NaHPO4, pH 6.5, 150 mM NaCl, 0.5 mM PMSF, 1% Triton X-100, 2 μg/ml Pepstatin A, 10 μg/ml leupeptin, 5 μg/ml aprotinin, 2 μg/ml E64) at 4° C. […] Low-density, flocculent material was collected (from original position of 18.125% step), diluted 5-fold in 10 mM NaHPO4, pH 6.5, 150 mM NaCl and harvested by centrifugation at 20,000×g for 15 min (all at 4° C.). […] Mass standards migrated as indicated. […] NIH-3T3 cells cotransfected with Gli-luc reporter and TK promoter-driven Renilla luciferase control were treated with the indicated concentrations of ShhNp for 2 days. Confluent cultures of NIH-3T3 cells were plated at 1:6 dilution to 24 or 96-well plates. On the following day, the cells were transfected with renilla luciferase (pRL-TK or pRL-SV40; Clontech) or β-galactosidase transfection control (10% w/w DNA), Gli-Luc reporter (40%) and the constructs indicated (50%) using Fugene 6 (Roche) transfection reagent (250 ng (24 well plate) or 100 ng (96 well plate) DNA/well, 3:1 ratio (v/w) of reagent to DNA). […] Firefly and Renilla luciferase and β-galactosidase activities were assayed from the cell lysates by luminometry using dual luciferase (Promega) and Galacto-Light (Tropix) kits, respectively. Luciferase activities are normalized relative to control; a representative experiment is shown. […] Error bars indicate one standard deviation. […] Cultures of Shh-LIGHT (open boxes) or SmoA1-LIGHT (filled diamonds) cells were plated to 96-well plates in a series of twofold dilutions. The NIH-3T3 cell clone Shh-LIGHT and Shh-LIGHT2 stably incorporating the Gli-luc reporter and TK-renilla vectors were established by cotransfection with a vector encoding G418 resistance (pSV-Neo), followed by selection with G418 and cell cloning. Subsequently, a clonal subline of Shh-LIGHT expressing activated Smo (SmoA1-LIGHT) was established using an expression vector that allows hygromycin selection (pcDNA3.1+ hygro; Invitrogen). […] The Shh-LIGHT cells were treated with 4 nM ShhNp, and Gli-luciferase reporter activity was assayed after 24 h. Fold induction of the reporter (% of maximum is relative to equally dense Shh-LIGHT control culture) and cell densities (% of maximum Renilla luciferase activity) were measured at the end of the experiment. Error bars indicate one standard deviation (quadruplicate wells).
Relative reporter activity is normalized to maximum. […] Error bars in A and B indicate one standard deviation.

[1] abbreviates: Mus musculus, NIH3T3, concentration for 50% inhibition of Sonic hedgehog induction, Table II.

For the molecule `CC1=C2C[C@H]3[C@@H](CC=C4C[C@@H](OC(=O)NCCNC(=O)CCc5ccccc5)CC[C@@]43C)[C@@H]2CC[C@]12O[C@@H]1C[C@H](C)CN[C@H]1[C@H]2C` [Compound 8, 3O-dihydrocinnamoylethylenediaminecarbamoyl cyclopamine], the “IC50 relative to cyclopamine (times higher)” value was about 100 times and the “potency relative to cycloposine (3) (times weaker)” value was 10 times.

As usually defined, the IC50 is the concentration at which inhibition is half-maximal. A lower IC50 goes with higher potency. Consider `CC1=C2C(=O)[C@H]3[C@@H](CC=C4C[C@@H](OC(=O)NCCNC(=O)CCc5ccccc5)CC[C@@]43C)[C@@H]2CC[C@]12O[C@@H]1C[C@H](C)CN[C@H]1[C@H]2C` [Compound 12, 3O-dihydrocinnamoylethylenediaminecarbamoyl jervine], for which the “IC50 relative to cyclopamine (times higher)” value was about 100 times and the “potency relative to cycloposine (3) (times weaker)” value is reported as 10 times. The molecule also displayed an IC50 under setting [1] of over 10000 nM.

`CC1=C2C[C@H]3[C@@H](CC=C4C[C@@H](O)CC[C@@]43C)[C@@H]2CC[C@]12O[C@@H]1C[C@H](C)CN(CCNC(=O)CCc3ccccc3)[C@H]1[C@H]2C` [Compound 18, N—(N′-Dihydrocinnamoyl aminoethyl)cyclopamine] displayed an IC50 under setting [1] of over 100 nM.

In the case of `CC1=C2C[C@H]3[C@@H](CC=C4CC(=O)CC[C@@]43C)[C@@H]2CC[C@]12O[C@@H]1C[C@H](C)CN(CCNC(=O)CCc3ccccc3)[C@H]1[C@H]2C` [Compound 19, 3-Keto, N—(N′-dihydrocinnamoylaminoethyl)cyclopamine], the “improvement of inhibitory activity by oxidation of the hydroxyl group to a ketone” value (from here on “improvement of inhibitory activity”) is “approximately two-fold”. Under setting [1], this molecule had an IC50 of over 10 nM.

With `CC1=C2C[C@H]3[C@@H](CC=C4CC(=O)CC[C@@]43C)[C@@H]2CC[C@]12O[C@@H]1C[C@H](C)CN(CCNC(=O)c3ccc(C(=O)c4ccccc4)cc3)[C@H]1[C@H]2C` [Compound 21, 3-Keto, N—(N′-(4-benzoylbenzoyl)aminoethyl)cyclopamine], the “improvement of inhibitory activity” value is on record as “approximately two-fold”. Moreover, the IC50 under setting [1] was over 10 nM.

With `CC1=C2C[C@H]3[C@@H](CC=C4C[C@@H](O)CC[C@@]43C)[C@@H]2CC[C@]12O[C@@H]1C[C@H](C)CN(CCNC(=O)CCCCCCCCCCCNC(=O)C(F)(F)F)[C@H]1[C@H]2C` [Compound 29, N—(N′—(N″-Trifluoroacetyl aminododecanoyl) aminoethyl)cyclopamine], the “effect of N-alkyl modification on ability to block Shh signaling” value is on record as “do not significantly diminish” and the “effect of addition on inhibitory activity” value was “accentuate inhibitory activity”. The molecule also registered an IC50 under setting [1] of over 100 nM.

As to `CCC(=O)NCCN1C[C@@H](C)C[C@H]2O[C@]3(CC[C@@H]4C(=C3C)C[C@H]3[C@H]4CC=C4C[C@@H](O)CC[C@@]43C)[C@H](C)[C@@H]21` [Compound 30, N—(N′-Propionyl aminoethyl)cyclopamine], the IC50 under setting [1] is over 100 nM.

In the case of `CC1=C2C[C@H]3[C@@H](CC=C4C[C@@H](O)CC[C@@]43C)[C@@H]2CC[C@]12O[C@@H]1C[C@H](C)CN(CCNC(=O)CCCCCNC(=O)CCc3ccccc3)[C@H]1[C@H]2C` [Compound 33, N—(N′—(N″-Dihydrocinnamoyl aminocaproyl)aminoethyl)cyclopamine], the “effect of N-alkyl modification on ability to block Shh signaling” value is listed as “do not significantly diminish” and the “effect of addition on inhibitory activity” value was “accentuate inhibitory activity”. Also, the IC50 (concentration for 50% inhibition of Sonic hedgehog induction, Table II) is over 10 nM.

Take `CC1=C2C[C@H]3[C@@H](CC=C4CC(=O)CC[C@@]43C)[C@@H]2CC[C@]12O[C@@H]1C[C@H](C)CN(CCNC(=O)CCCCCNC(=O)CCc3ccccc3)[C@H]1[C@H]2C` [Compound 34, 3-Keto, N—(N′—(N″-dihydrocinnamoylaminocaproyl)aminoethyl)cyclopamine]: the “potency relative to cyclopamine” value is listed as “ten-fold greater” and the “improvement of inhibitory activity” value is recorded as “approximately two-fold”. The midpoint of inhibition (Mus musculus, NIH3T3, concentration for 50% inhibition of Sonic hedgehog induction), the IC50, lay at 30 nM. In addition, under setting [1], the IC50 is over 10 nM.
